According to patent US20110135583A1, “Anionic Isosorbide Derivatives and Their Use (II)” (COGNIS IP […], priority 2009, published 2011):

Assay: Foam quality and foam volume test of the isosorbide sulfosuccinate
Format: physicochemical
Conditions: 2.5% active substance in water, stirred to foam under standard conditions
Description: The foam quality and foam volume of this surfactant was tested as follows:
The isosorbide sulfosuccinate is dissolved in water at a rate of 2.5% active substance, and stirred to foam under standard conditions. According to a visual evaluation the surfactant of Example 1 has a foam quality of 4-5 on a scale of 1 (small bubbles, high cushion, stable foam) to 5 (large bubbles, unstable foam), and a foam volume equal to 32% of the foam for a standard surfactant (see FIG. 1).

Which foam volume does the source give for “Isosorbide Lauroylester Sulfosuccinate [Example 1]” here?
Its foam volume is 32 % of the foam for a standard surfactant.

What about the foam quality (visual evaluation, scale of 1 (small bubbles, high cushion, stable foam) to 5 (large bubbles, unstable foam)) of the same substance?
Its foam quality is 4-5.
